Consider 2 compounds from US20030229228A1 (priority 2000, published 2003).

The term melting point denotes the temperature, or range, at which the solid turns liquid. Take `CCS(=O)(=O)N[C@H](C(=O)NCCc1cc(Br)c(O)c(OC)c1)C(C)C`: the melting point lay within 145 to 147 °C.
The value for `CCS(=O)(=O)N[C@H](C(=O)NCCc1cc(Br)c(OCC#Cc2ccc(Cl)cc2)c(OC)c1)C(C)C` was 109 to 111 °C.
